The values below come from patent US11667673B2, “Therapeutically active compounds and their methods of use” (Servier Pharmaceuticals LLC, priority 2013, dated 2023).

This test deals with U87MG cells. Nature of the test: Cellular assay for IDH1m inhibitors: inhibition of 2-HG production in U87MG cells (LC-MS). The test is classed as cell-based. Here is the method:
Cells (HT1080 or U87MG) are grown in T125 flasks in DMEM containing 10% FBS, 1× penicillin/streptomycin and 500 ug/mL G418 (present in U87MG cells only). They are harvested by trypsin and seeded into 96 well white bottom plates at a density of 5000 cell/well in 100 ul/well in DMEM with 10% FBS. […] Cells are incubated overnight at 37° C. in 5% CO2. The next day test compounds are made up at 2× the final concentration and 100 ul are added to each cell well. The final concentration of DMSO is 0.2% and the DMSO control wells are plated in row G. The plates are then placed in the incubator for 48 hours. […] The cell plate is placed back in the incubator for another 24 hours. At 72 hours post compound addition, 10 mL/plate of Promega Cell Titer Glo reagent is thawed and mixed. The cell plate is removed from the incubator and allowed to equilibrate to room temperature. Then 100 ul of Promega Cell Titer Glo reagent is added to each well of media. The cell plate is then placed on an orbital shaker for 10 minutes and then allowed to sit at room temperature for 20 minutes. The plate is then read for luminescence with an integration time of 500 ms.

For “(S)—N—((S)-1-(2-Chlorophenyl)-2-(3,3-difluorocyclobutylamino)-2-oxoethyl)-1-(3-cyanophenyl)-N-(1H-indazol-7-yl)-5-oxopyrrolidine-2-carboxamide [compound 186]”, the half-inhibitory concentration (IC50) (usually the point on the concentration scale where inhibition reaches its midpoint) (inhibition of 2-HG production, U87MG cells, 48 hours) is less than 100 nM. Take `O=C(NC1CCC(F)(F)CC1)[C@H](c1ccccc1Cl)N(C(=O)[C@@H]1CCC(=O)N1c1ncccn1)c1cccc(F)c1` [compound 4, (S)—N—((S)-1-(2-chlorophenyl)-2-((4,4-difluorocyclohexyl)amino)-2-oxoethyl)-N-(3-fluoro-phenyl)-5-oxo-1-(pyrimidin-2-yl)pyrrolidine-2-carboxamide]: the IC50 (Homo sapiens, U-87 MG, 48 h) is less than 100 nM. Still for that read-out and setting: next, `CN1C[C@@H](C(=O)N(c2cccc(F)c2)[C@H](C(=O)NC2CC(F)(F)C2)c2ccccc2Cl)N(c2cc(C#N)ccn2)C1=O` [compound 79]: less than 100 nM.
